Experiments:
[1] = system: human nonsmall-cell lung cancer cell H460; assay: In vitro anti-tumor cell activity (MTT), H460; type: cell-based; conditions: H460 cells, MTT, 72 h, Bliss method
Method: (§1) The digested cell solution was poured into a centrifuge tube, to which a culture media was added to stop the digestion. The centrifuge tube was centrifuged at 800 r/min for 10 min, the supernatant was removed gently and then 5 mL of the culture media was added. The cells were pipetted and mixed homogeneously. 10 μL cell suspension was taken into a cell counting plate for counting, wherein the cell concentration was adjusted to 10^4 cells/well. To each well of a 96-well plate, except for A1 well as blank control, was added 100 μL of the cell suspension. The 96-well plate was placed in an incubator and cultivated for 24 h. […] The 96-well plate was placed in an incubator and cultivated for 72 h. (3) The culture media containing the compounds in the 96-well plate was removed, and the cells were washed with phosphate buffered solution (PBS) twice. To each well was added 100 μL MTT (tetrazole) (0.5 mg/mL), after placing the plate in an incubator to incubate for 4 h, the MTT solution was removed and 100 μL dimethyl sulfoxide was added. The reaction product of survival cells with MTT, i.e. formazan, was dissolved completely by oscillation on a magnetic oscillator, and then placed into a microplate reader to measure the results, and the IC50 values of compounds could be deduced by Bliss method.

[2] = system: human colon cancer cell HT-29; assay: In vitro anti-tumor cell activity (MTT), HT-29; type: cell-based; conditions: HT-29 cells, MTT, 72 h, Bliss method
Method: as §1

[3] = system: human gastric cancer cell MKN-45; assay: In vitro anti-tumor cell activity (MTT), MKN-45; type: cell-based; conditions: MKN-45 cells, MTT, 72 h, Bliss method
Method: as §1

[4] = system: human hepatoma carcinoma cell line SMMC-7721; assay: In vitro anti-tumor cell activity (MTT), SMMC-7721; type: cell-based; conditions: SMMC-7721 cells, MTT, 72 h, Bliss method
Method: as §1

[5] = molecular target: T1, c-Met kinase (His-tagged recombinant human Met (amino acids 974-end)) (Homo sapiens, UniProt P08581); assay: c-Met Enzyme Activity Inhibition Assay (ELISA); type: biochemical; conditions: 50 pM c-Met, 5 μM ATP, room temperature 20 min
T1 construct: His-tagged recombinant human Met (amino acids 974-end); His
Method: c-Met Enzyme Activity Inhibition Assay
The assay for the determination of c-Met kinase activity is based on an enzyme linked immunosorbant assay (ELISA). A compound of Formula I, 50 pM c-Met (His-tagged recombinant human Met (amino acids 974-end), expressed by baculovirus), and 5 μM ATP in an assay buffer (25 mM MOPS, pH 7.4, 5 mM MgCl2, […], 100 μM sodium orthovanadate, 0.01% Triton X-100, 1 mM DTT, final DMSO concentration 1% (v/v)) were incubated on a plate coated with 0.25 mg/mL POT at room temperature for 20 min. The reaction mixture was removed by washing and the phosphorylated polymer substrate was detected with 0.2 μg/mL phosphotyrosine specific monoclonal antibody (PY20) conjugated to horseradish peroxidase (HRP). After the addition of 1M phosphoric acid to stop the development, the chromogenic substrate (TMB) color was quantitated by spectrophotometry at 450 nm.

T1 sequence (P08581 956-1390): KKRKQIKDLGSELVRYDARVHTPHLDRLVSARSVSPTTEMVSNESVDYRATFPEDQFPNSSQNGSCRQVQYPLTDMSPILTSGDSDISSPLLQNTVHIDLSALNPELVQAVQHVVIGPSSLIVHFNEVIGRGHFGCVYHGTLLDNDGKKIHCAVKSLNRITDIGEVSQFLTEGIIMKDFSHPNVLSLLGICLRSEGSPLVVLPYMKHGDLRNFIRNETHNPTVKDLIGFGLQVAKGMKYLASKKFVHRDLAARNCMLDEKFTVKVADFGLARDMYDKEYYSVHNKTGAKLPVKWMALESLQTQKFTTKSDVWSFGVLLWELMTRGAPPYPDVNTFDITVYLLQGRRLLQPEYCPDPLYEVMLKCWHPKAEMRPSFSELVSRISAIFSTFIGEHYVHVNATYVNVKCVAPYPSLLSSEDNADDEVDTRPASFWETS

Substance | H460 IC50 [1] | HT-29 IC50 [2] | MKN-45 IC50 [3] | SMMC-7721 IC50 [4] | IC50 for inhibiting c-Met kinase [5]
N-[3-fluoro-4-[6-methoxy-7-[3-(1-pyrrolidyl)propyloxy]quinolin-4-oxy]phenyl]-2-(4-methoxyphenyl)-4-methyl-3,5-dicarbonyl-2,3,4,5-tetrahydro-1,2,4-triazine-6-carboxamide [Example 11] | 2.1 µg/mL | 1.4 µg/mL | 3.3 µg/mL | 2.5 µg/mL | 0.47 µg/mL
N-[3-fluoro-4-[6-methoxy-7-[3-(1-pyrrolidyl)propyloxy]quinolin]-4-oxy]phenyl]-2-(4-fluorophenyl)-4-allyl-3,5-dicarbonyl-2,3,4,5-tetrahydro-1,2,4-triazine-6-carboxamide [Example 42] | 1.1 µg/mL | 0.77 µg/mL | 0.11 µg/mL | 0.92 µg/mL | 1.63 µg/mL
N-[3-fluoro-4-[6-methoxy-7-[3-(4-methyl-1-piperazinyl)propyloxy]quinolin]-4-oxy]phenyl]-2-(2-fluorophenyl)-4-allyl-3,5-dicarbonyl-2,3,4,5-tetrahydro-1,2,4-triazine-6-carboxamide [Example 41] | 0.8 µg/mL | 1.1 µg/mL | 0.06 µg/mL | 1.4 µg/mL | 2.7 µg/mL
N-[3-fluoro-4-[6-methoxy-7-[3-(4-methyl-1-piperazinyl)propyloxy]quinolin]-4-oxy]phenyl]-2-(3,4-difluorophenyl)-4-benzyl]-3,5-dicarbonyl-2,3,4,5-tetrahydro-1,2,4-triazine-6-carboxamide [Example 45] | 0.34 µg/mL | 0.28 µg/mL | 0.05 µg/mL | 1.1 µg/mL | 2.72 µg/mL
N-[3-fluoro-4-[6-methoxy-7-[3-(4-methyl-1-piperazinyl)propyloxy]quinolin]-4-oxy]phenyl]-2-(3-trifluoromethylphenyl)-4-benzyl-3,5-dicarbonyl-2,3,4,5-tetrahydro-1,2,4-triazine-6-carboxamide [Example 47] | 1.1 µg/mL | 0.09 µg/mL | 0.4 µg/mL | 3.7 µg/mL | 5.92 µg/mL
N-[3-fluoro-4-[6-methoxy-7-[3-(4-methyl-1-piperidinyl)propyloxy]quinolin-4-oxy]phenyl]-2-(3-trifluoromethylphenyl)-4-methyl-3,5-dicarbonyl-2,3,4,5-tetrahydro-1,2,4-triazine-6-carboxamide [Example 24] | 0.28 µg/mL | 0.5 µg/mL | 0.093 µg/mL | 0.61 µg/mL | 0.18 µg/mL
N-[3-fluoro-4-[6-methoxy-7-[3-(4-methyl-1-piperidinyl)propyloxy]quinolin-4-oxy]phenyl]-2-(4-methylphenyl)-4-methyl-3,5-dicarbonyl-2,3,4,5-tetrahydro-1,2,4-triazine-6-carboxamide [Example 14] | 0.15 µg/mL | 0.11 µg/mL | 2.1 µg/mL | 0.88 µg/mL | 0.088 µg/mL

From patent US8993566B2, “Quinoline compound composing 1,2,4-triazine-dione and use thereof” (Wuhan Shengyun Biopharma Co., Ltd., priority 2012, dated 2015)
